In this test the test system is IL-1β. The test is described as follows: Plasma (systemic) IL-1β by ELISA after tibial surgery. The class given is in vivo. As to conditions: wild type mice, minocycline 40 mg/kg i.p., enrofloxacin 10 mg/kg or IL-1Ra 100 mg/kg given prior to surgery, vs surgery alone. The source says:
Mice were subjected to an open tibial fracture of the left hind paw with intramedullary fixation in aseptic conditions under general anaesthesia with isoflurane and analgesia with buprenorphineas previously described^18. Other groups of animals were not subjected to any intervention (naïve), or received anesthetic/analgesia alone, or underwent surgery with concurrent administration of minocycline, enrofloxacin, or IL-1 receptor antagonist (IL-1Ra). (For further details please refer to supplemental methods).
IL-6, TNF-α and IL-1β were measured by ELISA^19 (Biosource, CA; Bender Medsystem, CA, respectively). Hippocampal IL-1β was measured by ELISA (Bender Medsystem, CA), as previously described^20. To confirm reliability of dilution linearity and spike recovery cytokine measurement were also performed in mice in which inflammation was induced with i.p. LPS (0111:B4, Invivogen, CA). (For further details please refer to supplemental methods).
Mice were randomly assigned to the following groups: surgery under general anesthesia (S), surgery under general anesthesia plus minocycline (M), surgery under general anesthesia plus enrofloxacin (E), surgery under general anesthesia plus interleukin-1 receptor antagonist (IL-1Ra) (I), surgery in IL1R^−/− mice under general anesthesia (K), general anesthesia without surgery (A), and no intervention (naïve wild-type, or naïve IL1R^−/−). Under aseptic conditions, groups of mice were subjected to an open tibial fracture of the left hind paw with an intramedullary fixation as previously described^2. Briefly, isoflurane (Abbot Laboratories Ltd., Queensborough, Kent, UK) 2.1% in air (1.5 MAC)^3 and buprenorphine (Reckitt Benckiser Healthcare Ltd, Hull, UK) 0.1 mg/kg subcutaneously (sc), were given to provide both surgical anesthesia and extended post-operative analgesia for the surgical intervention and post-surgical recovery. After shaving the overlying skin and disinfecting with chlorhexidine gluconate 0.5% and isopropyl alcohol 70% (PDI, Orangeburg, NY, USA) a fracture of the tibial shaft was created under direct vision. […]
On the technique in general: An ELISA detects its analyte on a solid surface through an enzyme-linked reagent.

Regarding `CCN1CCN(c2cc3c(cc2F)c(=O)c(C(=O)O)cn3C2CC2)CC1` [enrofloxacin, reference compound], the “Plasma IL-1β after surgery, effect of treatment” value was “exerted no effect on IL-1β plasma concentration”. The “Plasma IL-1β after surgery, effect of treatment” value (listed as Enrofloxacin) is reported as “failed to reduce plasma levels of IL-1β”.

The values above are taken from US12325744B2, “Methods for reducing post-operative cognitive dysfunction (POCD)” (The Kennedy Trust for Rheumatology Research, priority 2010, dated 2025).
